Drawing on publication PMC11416286 (Heliyon, 2024), this text covers IC50 for 1 compound.

For orientation: IC50 means the point on the concentration scale where inhibition reaches its midpoint. Read a high IC50 as lower potency.

In the assay the target is Aβ (1-42) (Homo sapiens, UniProt P05067). Nature of the assay: Thioflavin T fluorescence anti-aggregation assay with […] Aβ. In kind it is biochemical.
Sequence of Aβ (1-42) (P05067 672-713): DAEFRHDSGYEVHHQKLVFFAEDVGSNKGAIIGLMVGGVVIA

Compound `O=c1oc2c(O)c(O)cc3c(=O)oc4c(O)c(O)cc1c4c23` [EA, Ellagic acid] gave an IC50 of 8.01 ± 0.5 µM.
